Among the test systems are A549 NSCLC; ACHN renal; HT29 colon; MALME-3M melanoma; MDA-MB-435; OVCAR-5 ovarian; SK-MEL-2 melanoma; SK-OV-3 ovarian; SN12C renal; SW-620 colon.
What all share (test): DTP human tumour cell line panel, 48 h

The structures appear in SMILES notation.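 How tested: cells in 96-well plates exposed to compound for 48 hours at five concentrations. TGI denotes the concentration required for complete inhibition of growth.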 Bounds are passed on as bounds.

In the case of `O=C1C2CC=CCC2C(=O)N1n1c(-c2ccccc2)n[nH]c1=O` (stereo not given), the TGI in the assay on A549 NSCLC, in the assay on ACHN renal, in the assay with HT29 colon, in the assay on MALME-3M melanoma, in the assay on MDA-MB-435 and in the assay with OVCAR-5 ovarian was more than 100 µM each time. Also, the TGI with SK-MEL-2 melanoma, in the assay with SK-OV-3 ovarian, in the assay with SN12C renal and in the assay with SW-620 colon was more than 100 µM each time.
`CN(C(=O)Cc1cc(Cl)c(Cl)cc1N=C=S)[C@H]1CCCC[C@@H]1N1CCCC1`: the TGI amounted to 30.6 µM in the assay with A549 NSCLC; 28.7 µM with ACHN renal; 18.7 µM in the assay with HT29 colon; 31.8 µM in the assay on MALME-3M melanoma; 17 µM with MDA-MB-435; 31.7 µM in the assay on OVCAR-5 ovarian. Besides, the total growth inhibition concentration (TGI) with SK-MEL-2 melanoma worked out at 29.2 µM; in the assay on SK-OV-3 ovarian, 32.3 µM; in the assay on SN12C renal it was 30.3 µM; in the assay on SW-620 colon it was 23.6 µM.
In the case of `CC(=O)OCC(OC(C)=O)C(OC(C)=O)C(C=NN(C(C)=O)S(=O)(=O)c1ccc(/C=C2\NC(=O)NC2=O)cc1)OC(C)=O` (stereo not given), the total growth inhibition concentration (TGI) with A549 NSCLC, with ACHN renal, with HT29 colon, with MALME-3M melanoma, in the assay with MDA-MB-435 and with OVCAR-5 ovarian was more than 100 µM each time. In addition, the TGI in the assay with SK-MEL-2 melanoma, with SK-OV-3 ovarian, in the assay with SN12C renal and with SW-620 colon was more than 100 µM each time.
For `COC(=O)[C@@H]1CN(C(=O)CCc2ccccc2)C(=O)N1C(=O)OCc1ccccc1`, the TGI in the assay with A549 NSCLC, with ACHN renal, in the assay on HT29 colon, in the assay on MALME-3M melanoma, with MDA-MB-435 and in the assay on OVCAR-5 ovarian was more than 100 µM throughout. Also, the TGI in the assay with SK-MEL-2 melanoma, with SK-OV-3 ovarian, with SN12C renal and with SW-620 colon was more than 100 µM throughout.
Regarding `COc1ccc(NC(=O)/C(=N\NC(=O)C[n+]2ccccc2)c2c(O)c3ccc(O)cc3oc2=O)c([N+](=O)[O-])c1`, the TGI in the assay on A549 NSCLC, in the assay on ACHN renal, in the assay with HT29 colon, in the assay on MALME-3M melanoma, in the assay on MDA-MB-435 and in the assay on OVCAR-5 ovarian was more than 100 µM in each case. For the same molecule, the concentration for total growth inhibition (TGI) with SK-MEL-2 melanoma, in the assay with SK-OV-3 ovarian, in the assay on SN12C renal and in the assay with SW-620 colon was more than 100 µM each time.
In the case of `O=C(NCc1cccnc1)NCc1cccnc1`, the TGI with A549 NSCLC, with ACHN renal, with HT29 colon, in the assay on MALME-3M melanoma, with MDA-MB-435 and in the assay with OVCAR-5 ovarian was more than 100 µM throughout. Besides, the TGI in the assay with SK-MEL-2 melanoma, in the assay with SK-OV-3 ovarian, in the assay on SN12C renal and in the assay on SW-620 colon was more than 100 µM in each case.
As for `CC1=C(N2CC2)C(=O)c2nc3n(c2C1=O)CCC3OC(=O)CCl` (stereo not given), the concentration for total growth inhibition (TGI) came out at 0.169 µM in the assay on A549 NSCLC; 0.216 µM with ACHN renal; 0.337 µM in the assay on HT29 colon; 0.103 µM in the assay on MALME-3M melanoma; 0.112 µM in the assay with MDA-MB-435; 0.263 µM with OVCAR-5 ovarian. For the same molecule, the TGI in the assay on SK-MEL-2 melanoma was found to be 0.271 µM; in the assay with SK-OV-3 ovarian, 0.29 µM; in the assay on SN12C renal, 0.267 µM; in the assay with SW-620 colon, 0.191 µM.
On to `NC(N)=N/N=C/c1c(-c2ccccc2)nc2n1ccc1nc(-c3ccccc3)c(/C=N/N=C(N)N)n12`, for which the concentration for total growth inhibition (TGI) with A549 NSCLC is more than 100 µM; in the assay with ACHN renal, more than 100 µM; with HT29 colon, more than 100 µM; in the assay with MALME-3M melanoma, 84 µM; in the assay on MDA-MB-435, more than 100 µM; in the assay with OVCAR-5 ovarian, more than 100 µM. Also, the TGI with SK-MEL-2 melanoma, in the assay on SK-OV-3 ovarian, in the assay on SN12C renal and with SW-620 colon was more than 100 µM each time.
In the case of `Cc1ccc(N2C(=O)C3c4[nH]c5ccccc5c4C4CCC(C(C)(C)C)CC4C3C2=O)cc1` (stereo not given), the TGI worked out at 23.1 µM in the assay with A549 NSCLC; 13.6 µM in the assay on ACHN renal; 46.1 µM in the assay with HT29 colon; 22.6 µM in the assay on MALME-3M melanoma; 42 µM in the assay on MDA-MB-435; 39.3 µM in the assay with OVCAR-5 ovarian. Further, the total growth inhibition concentration (TGI) in the assay on SK-MEL-2 melanoma was 44.6 µM; in the assay on SK-OV-3 ovarian, 28.2 µM; in the assay with SN12C renal, 24.7 µM; in the assay on SW-620 colon, more than 47.4 µM.
With `N#C/C(=C\c1ccccc1)C(=O)Nc1nnc(-c2ccccc2)o1`, the concentration for total growth inhibition (TGI) with A549 NSCLC, with ACHN renal, in the assay with HT29 colon, in the assay with MALME-3M melanoma, in the assay on MDA-MB-435 and with OVCAR-5 ovarian was more than 100 µM throughout. The concentration for total growth inhibition (TGI) with SK-MEL-2 melanoma, in the assay on SK-OV-3 ovarian, in the assay on SN12C renal and in the assay on SW-620 colon was more than 100 µM in each case.
Consider `Cc1n[nH]c(=O)c2cc(-c3ccccc3)[nH]c12`, for which the TGI with A549 NSCLC, in the assay with ACHN renal, with HT29 colon, in the assay on MALME-3M melanoma, with MDA-MB-435 and with OVCAR-5 ovarian was more than 100 µM throughout. Further, the TGI with SK-MEL-2 melanoma was 91.1 µM; with SK-OV-3 ovarian it was more than 100 µM; in the assay on SN12C renal it was more than 100 µM; in the assay with SW-620 colon, more than 100 µM.
`O=c1cc(-c2cccc(Cl)c2)[nH]c2ncccc12`: the concentration for total growth inhibition (TGI) with A549 NSCLC was more than 100 µM; with ACHN renal, more than 100 µM; in the assay on HT29 colon it was more than 100 µM; in the assay with MALME-3M melanoma, more than 100 µM; in the assay on MDA-MB-435, 0.0382 µM; with OVCAR-5 ovarian it was more than 100 µM. Moreover, the TGI in the assay with SK-MEL-2 melanoma was more than 86.5 µM; in the assay with SK-OV-3 ovarian, more than 100 µM; with SN12C renal it was 30.5 µM; in the assay with SW-620 colon, more than 100 µM.
Regarding `C=C1CC2OC2(C(=O)O[C@H]2CCC3[C@@H]4CCC5=CC(=O)CC[C@]5(C)C4CC[C@@]32C)C1=O` (stereo not given in full), the TGI turned out to be 43 µM in the assay with A549 NSCLC; 16.2 µM in the assay on ACHN renal; 24.3 µM with HT29 colon; 16.5 µM in the assay with MALME-3M melanoma; 48.7 µM in the assay on MDA-MB-435; 38.4 µM in the assay on OVCAR-5 ovarian. Further, the concentration for total growth inhibition (TGI) with SK-MEL-2 melanoma came out at 15.1 µM; in the assay on SK-OV-3 ovarian, 38.8 µM; with SN12C renal it was 13.9 µM; with SW-620 colon, 11.8 µM.

The record behind these values is PubChem BioAssay (NCI).
